Data published in patent US20240239782A1, “SULFATE CRYSTALS OF MELANOCORTIN RECEPTOR AGONIST COMPOUND AND METHOD OF PRODUCING SAME” (LG CHEM, LTD., priority 2021, published 2024).

Protocol: Solubility indicates the result of measurement based on the final volume of water added to a sample when it is visually confirmed that the sample is completely dissolved by adding water to the sample. The solubility of the actual sample may be higher than the measured solubility. Solubility was measured based on the final volume of water added to a sample when it was visually confirmed that the sample was completely dissolved by adding water to the sample.

solubility: more than 56 mg/mL
Structure (SMILES): CC(C)C(=O)N([C@H]1C[C@@H](C(=O)N2CCOCC2)N(C(=O)[C@@H]2CN(C(C)(C)C)C[C@H]2c2ccc(Cl)cc2)C1)[C@H]1CC[C@@H](C)CC1.O=S(=O)(O)O [Example 2, N-((3S,5S)-1-((3S,4R)-1-(tert-butyl)-4-(4-chlorophenyl)pyrrolidine-3-carbonyl)-5-(morpholine-4-carbonyl)pyrrolidin-3-yl)-N-((1 s,4R)-4-methylcyclohexyl)isobutyramide sulfate]
